From patent publication US5703113A, “Benzopyran derivatives” (priority 1992, dated 1997) come the findings set out here.

Experiment [1] deals with potassium canal (isolated arteria mesenterica anterior). As to the kind of experiment: Potassium canal binding ("bandage") and selectivity on isolated arteria mesenterica anterior of rabbits. Conditions: isolated rabbit mesenteric artery; KCl vs adrenaline contraction, TEA medium. As to the method: 1. […] Rabbits of both sexes weighing 2000-2500 g were anesthetized by a hit at the nape, the abdominal wall was cut open and the arteria mesenterica anterior was mounted after exsanguination. The artery was put into a Krebs solution of a temperature of 37° C. infiltrated with carbogene while removing the interstitial residues. Then a 2 mm wide spiral is cut from the artery and this artery stripe is prestretched in an organ pot in Krebs solution of a temperature of 37° C., infiltrated with carbogene, by a stretching of 0.5 g. In the experiment Hugo Basile type dynamometer heads, Hugo Basile type amplifiers and Perkin Elmer type potentiometer have been used for amplifying and fixing the signs. Two parallel organs were used for the qualitative tests. One of them was contracted by adding 30 mmoles of KCl after an incubation time of 1 hour, the other one by 5 μmoles of adrenaline. Then the arteries were relaxed by the cumulative addition of the substance to be examined. The system was washed with a Krebs solution containing 30 mmoles of tetraethyl ammonium bromide (TEA) and the organs were incubated for 30 minutes in a TEA-containing medium. After incubation the organs were again contracted with potassium and noradrenaline and a dilatation was induced by using the substance to be examined. In a quantitative test organs contracted with 5 μmoles of noradrenaline were relaxed with the substance to be examined and the dose inducing a 50% dilatation was determined.

In the next experiment the test system is normotensive rats. The experiment can be described thus: Decrease of blood pressure on normotensive rats measured by average arterial tension. The experiment is classed as in vivo, Wistar rats. Further details: Pulse: unit not given beside the values; Average arterial tension / Decrease (of average arterial tension): unit not given here. As to the method:
2. Decrease of blood pressure on normotensive rats measured by average arterial tension
Wistar rats of both sexes weighing 230-260 g were used in the experiments. The rats were narcotised by 40 mg/kg of pentobarbital. The trachea was mounted and a polyethylene canula was introduced into the trachea, vena jugularis sinester and to the arteria carotis communis sinester. The substances to be examined were introduced into the organism of the animal through the duodenum. The pulsatory, systolic and diastolic blood pressure and the pulse were continuously measured by using a Statham type tensiometer head and haemodynamic measuring system produced by the Hungarian firm Experimetria Kft. After the blood pressure has become stable 0.75 μg of adrenaline were administered intravenously to measure the effect of alpha-adrenergic receptors on the blood pressure. After the hypertension has ceased 0.1 μg/kg of isoproterenole is added in order to characterize the activity of the β-adrenerg receptors. After tachycardia has ceased the test compound was administered i.d. and the treatment with the receptor stimulants was repeated after an hour in order to characterize the effect of the test compound on adrenergic receptor subclasses.
Change of the blood pressure on normotensive rats measured on six test animals

[2] abbreviates: 10 mg/kg i.d., time 0 min (baseline).
The mark [3] stands for this setting: 1 mg/kg i.d., time 0 min (baseline).
Setting [4] is: 5 mg/kg i.d., time 0 min (baseline).

Consider `COc1cc2c(cc1Br)[C@@H](N1CCCC1=O)[C@H](O)C(C)(C)O2` (relative stereo) [Example 9, (+/-) 16-bromo-7-methoxy-3,4-dihydro-2,2-dimethyl-trans-4-(2-oxo-1-pyrrolidinyl)-2H-benzo (b) pyran-3-ol], for which the Mechanism of effect entry in experiment [1] is “Potassium canal activator”. Moreover, the Selectivity entry in experiment [1] was “selective”. Also, the Average arterial tension in the experiment on normotensive rats (setting [2]) amounted to 117 ± 19; in the experiment with normotensive rats (10 mg/kg i.d., time 1 min), 119 ± 16; in the experiment on normotensive rats (10 mg/kg i.d., time 10 min), 58 ± 5; in the experiment on normotensive rats (10 mg/kg i.d., time 30 min), 65 ± 15; in the experiment on normotensive rats (10 mg/kg i.d., time 60 min), 87 ± 18. Besides, the Pulse in the experiment on normotensive rats (setting [2]) turned out to be 406 ± 51; with normotensive rats (10 mg/kg i.d., time 1 min), 406 ± 51; in the experiment on normotensive rats (10 mg/kg i.d., time 10 min), 436 ± 62; with normotensive rats (10 mg/kg i.d., time 30 min) it was 430 ± 63; in the experiment with normotensive rats (10 mg/kg i.d., time 60 min), 430 ± 63. In addition, the “Decrease (of average arterial tension)” value with normotensive rats (10 mg/kg i.d., time 1 min) is “+2”; in the experiment with normotensive rats (10 mg/kg i.d., time 10 min), -59; with normotensive rats (10 mg/kg i.d., time 30 min) it was -52; in the experiment on normotensive rats (10 mg/kg i.d., time 60 min), -30.

Regarding `COc1cc2c(cc1C#N)[C@@H](N1CCCC1=O)[C@H](O)C(C)(C)O2` (racemic) [Example 15, (+/-)-6-cyano-7-methoxy-3,4-dihydro-2,2-dimethyl-trans-4-(2-oxo-1-pyrrolidinyl)-2H-benzo (b) pyran-3-ol], the Mechanism of effect result in experiment [1] is on record as “Potassium canal activator”. Besides, the Selectivity entry in experiment [1] is “selective”. The Average arterial tension is 125 ± 13 in the experiment with normotensive rats (setting [3]); 92 ± 10 with normotensive rats (1 mg/kg i.d., time 1 min); 103 ± 5 with normotensive rats (1 mg/kg i.d., time 10 min); 118 ± 15 in the experiment with normotensive rats (1 mg/kg i.d., time 30 min); 122 ± 10 with normotensive rats (1 mg/kg i.d., time 60 min). Moreover, the Pulse was found to be 412 ± 45 in the experiment on normotensive rats (setting [3]); 439 ± 42 in the experiment on normotensive rats (1 mg/kg i.d., time 1 min); 430 ± 45 in the experiment on normotensive rats (1 mg/kg i.d., time 10 min); 430 ± 45 with normotensive rats (1 mg/kg i.d., time 30 min); 412 ± 37 with normotensive rats (1 mg/kg i.d., time 60 min). For the same compound, the “Decrease (of average arterial tension)” value is -33 with normotensive rats (1 mg/kg i.d., time 1 min); -22 in the experiment on normotensive rats (1 mg/kg i.d., time 10 min); -7 with normotensive rats (1 mg/kg i.d., time 30 min); -3 in the experiment on normotensive rats (1 mg/kg i.d., time 60 min).

Regarding `COc1cc2c(cc1OC)[C@@H](N1CCCC1=O)[C@H](O)C(C)(C)O2` (racemic) [Example 1, (+/-)-6,7-dimethoxy-3,4-dihydro-2,2-dimethyl-trans-4-(2-oxo-1-pyrrolidinyl)-2H-benzo(b)pyran-3-ol], the Mechanism of effect entry in experiment [1] is “Potassium canal activator”. Moreover, the Selectivity entry in experiment [1] is listed as “selective”. The Average arterial tension in the experiment on normotensive rats (setting [3]) is given as 107 ± 11; in the experiment on normotensive rats (1 mg/kg i.d., time 1 min) it was 56 ± 6; in the experiment with normotensive rats (1 mg/kg i.d., time 10 min), 56 ± 6; in the experiment on normotensive rats (1 mg/kg i.d., time 30 min), 49 ± 4; with normotensive rats (1 mg/kg i.d., time 60 min) it was 71 ± 20. Also, the Pulse with normotensive rats (setting [3]) worked out at 394 ± 27; in the experiment with normotensive rats (1 mg/kg i.d., time 1 min), 403 ± 34; in the experiment with normotensive rats (1 mg/kg i.d., time 10 min), 400 ± 31; in the experiment on normotensive rats (1 mg/kg i.d., time 30 min), 400 ± 31; with normotensive rats (1 mg/kg i.d., time 60 min) it was 382 ± 31. Also, the “Decrease (of average arterial tension)” value is recorded as -51 with normotensive rats (1 mg/kg i.d., time 1 min); -51 in the experiment on normotensive rats (1 mg/kg i.d., time 10 min); -45 in the experiment with normotensive rats (1 mg/kg i.d., time 30 min); -36 in the experiment with normotensive rats (1 mg/kg i.d., time 60 min).

With `CC1(C)Oc2ccc(C#N)cc2C(N2CCCC2=O)C1O` (stereo not drawn) [BRL 34915, reference compound], in experiment [1], the Mechanism of effect entry is “Potassium canal activator”. For the same compound, the Selectivity result in experiment [1] is on record as “selective”. Also, the Average arterial tension is reported as 112 ± 9 with normotensive rats (setting [3]); 45 ± 2 in the experiment on normotensive rats (1 mg/kg i.d., time 1 min); 45 ± 2 in the experiment on normotensive rats (1 mg/kg i.d., time 10 min); 49 ± 4 with normotensive rats (1 mg/kg i.d., time 30 min); 61 ± 11 with normotensive rats (1 mg/kg i.d., time 60 min). Besides, the Pulse was 368 ± 44 in the experiment on normotensive rats (setting [3]); 368 ± 31 in the experiment on normotensive rats (1 mg/kg i.d., time 1 min); 382 ± 25 in the experiment on normotensive rats (1 mg/kg i.d., time 10 min); 377 ± 19 in the experiment with normotensive rats (1 mg/kg i.d., time 30 min); 373 ± 12 with normotensive rats (1 mg/kg i.d., time 60 min). In addition, the “Decrease (of average arterial tension)” value was -67 in the experiment on normotensive rats (1 mg/kg i.d., time 1 min); -67 with normotensive rats (1 mg/kg i.d., time 10 min); -63 with normotensive rats (1 mg/kg i.d., time 30 min); -51 with normotensive rats (1 mg/kg i.d., time 60 min).

As to `COc1cc2c(cc1[N+](=O)[O-])[C@@H](N1CCCC1=O)[C@H](O)C(C)(C)O2` (relative stereo) [Example 11], the Mechanism of effect entry in experiment [1] is given as “Potassium canal activator”. In experiment [1], the Selectivity result is listed as “selective”. Further, the Average arterial tension in the experiment on normotensive rats (setting [3]) worked out at 121 ± 21; with normotensive rats (1 mg/kg i.d., time 1 min), 115 ± 11; in the experiment on normotensive rats (1 mg/kg i.d., time 10 min) it was 97 ± 23; with normotensive rats (1 mg/kg i.d., time 30 min), 105 ± 18; with normotensive rats (1 mg/kg i.d., time 60 min), 107 ± 12. The Pulse with normotensive rats (setting [3]) is given as 388 ± 10; in the experiment with normotensive rats (1 mg/kg i.d., time 1 min), 373 ± 15; with normotensive rats (1 mg/kg i.d., time 10 min) it was 394 ± 20; in the experiment on normotensive rats (1 mg/kg i.d., time 30 min) it was 382 ± 18; in the experiment with normotensive rats (1 mg/kg i.d., time 60 min), 382 ± 18. The “Decrease (of average arterial tension)” value is on record as -6 in the experiment with normotensive rats (1 mg/kg i.d., time 1 min); -24 in the experiment on normotensive rats (1 mg/kg i.d., time 10 min); -16 with normotensive rats (1 mg/kg i.d., time 30 min); -14 in the experiment on normotensive rats (1 mg/kg i.d., time 60 min).

Regarding `COc1cc2c(cc1Cl)[C@@H](N1CCCC1=O)[C@H](O)C(C)(C)O2` (racemic) [Example 10, (+/-)-6-chloro-7-methoxy-3,4-dihydro-2,2-dimethyl-trans-4-(2-oxo-1-pyrrolidinyl)-2H-benzo (b) pyran-3-ol], in experiment [1], the Mechanism of effect result is “Potassium canal activator”. Also, the Selectivity entry in experiment [1] was “selective”. The Average arterial tension in the experiment with normotensive rats (setting [4]) is 108 ± 15; in the experiment with normotensive rats (5 mg/kg i.d., time 1 min), 62 ± 3; in the experiment on normotensive rats (5 mg/kg i.d., time 10 min), 68 ± 6; with normotensive rats (5 mg/kg i.d., time 30 min), 96 ± 15; in the experiment with normotensive rats (5 mg/kg i.d., time 60 min), 109 ± 26. Moreover, the Pulse with normotensive rats (setting [4]) was found to be 402 ± 4; in the experiment with normotensive rats (5 mg/kg i.d., time 1 min), 418 ± 18; with normotensive rats (5 mg/kg i.d., time 10 min) it was 436 ± 18; in the experiment on normotensive rats (5 mg/kg i.d., time 30 min) it was 424 ± 10; in the experiment with normotensive rats (5 mg/kg i.d., time 60 min), 396 ± 13. For the same compound, the “Decrease (of average arterial tension)” value with normotensive rats (5 mg/kg i.d., time 1 min) is on record as -46; in the experiment with normotensive rats (5 mg/kg i.d., time 10 min), -40; in the experiment on normotensive rats (5 mg/kg i.d., time 30 min) it was -12; in the experiment with normotensive rats (5 mg/kg i.d., time 60 min), “+1”.
